Holding throughout (format): cell-based
One experiment deals with pathogenic bacteria. In words: Radial diffusion assay, HD-5 fragments. As to conditions: pathogenic Gram-positive and Gram-negative bacteria (FIG. 4). As to the method:
A heat map system with high activity (inhibition zone in the RDA>5 mm), low activity (2.5 to 5 mm) and no activity (2.5 mm) was used.
(§1) Antimicrobial activity of all peptides was tested with a modified radial diffusion assay from Lehrer et al^12 Shortly described, log-phase bacteria grew (anaerobic bacteria with AnaeroGen, Oxoid in anaerobic jars) in liquid tryptic soy broth (TSB) (Becton Dickinson). After several wash steps in 10 mM sodium phosphate buffer pH 7.4, 4×10^6 cfu/ml was used per assay. To measure the antibacterial effect of the identified peptide fragments, the bacteria were incubated in 10 mM sodium phosphate (pH 7.4) containing 0.3 mg/ml TSB powder and 1% (w/v) low EEO-agarose (Applichem). Peptide fragments were then pipetted into punched wells and allowed to diffuse for 3 hours at 37° C. After that a nutrient rich gel with 6% TSB (w/v) and 1% agarose in 10 mM sodium phosphate buffer was poured on top of the first gel. After 24 hours the inhibition zones were measured. […] All experiments were carried out at least three times.

The test system of a further experiment is commensal bacteria. Put plainly: Radial diffusion assay, HD-5 fragments. The settings on record: 4 μg fragment, 2 μg full-length peptide; commensal bacteria (FIG. 3). As to the method: In the RDA 2 μg of the full length and 4 μg of each fragment were used. An inhibition zone greater than 5 mm was determined as high activity, between 2.5 and 5 mm as low activity and 2.5 mm were the diameter of the punched well and therefore no activity.
as §1

The test system of a further experiment is A. baumannii 4-MRGN. As to the method:
(§2) The tested bacteria were incubated overnight in 1×TSB broth, centrifuged and washed with 10 mM sodium phosphate buffer containing 1% (w/v) TSB broth. 5×10^5 cfu/ml bacteria were mixed with different peptide concentrations in 10 mM sodium phosphate buffer with 1% (w/v) TSB (final volume 100 μl) and incubated for 2 hours at 37° C. Afterwards we added 100 μl 2×TSB broth and we measured the optical density at 600 nm (Spark 10M, Tecan, Austria). Bacterial growth was monitored for 12 hours, growing at 37° C. with shaking during the measurements each 30 minutes, except for Akkermansia muciniphila which were incubated at 37° C. in an anaerobic jar and growth was measured after 72 hours.

The test system of a further experiment is A. baumannii DSM 30007. As to the method:
as §2

A further experiment deals with E. coli JM83. As to the method: as §2
In a further experiment the test system is E. faecium 475747. As to the method:
as §2

A further experiment has as its system E. faecium DSM 20477. As to the method:
as §2

In the next experiment the test system is K. pneumoniae 3-MRGN. The settings on record: K. pneumoniae 3-MRGN; after 12 hours. As to the method: as §2
Another experiment has as its system K. pneumoniae DSM 30104. As to the method:
as §2

Another experiment deals with P. aeruginosa 4-MRGN. As to the method:
as §2

In another experiment the test system is P. aeruginosa ATCC 27853. As to the method:
as §2

In the next experiment the test system is P. aeruginosa PAO1. As to the method: as §2
Another experiment relates to P. aeruginosa XPAT1. As to the method: as §2
The next experiment deals with P. aeruginosa XPAT2. As to the method: as §2
For the next experiment, the system named is S. aureus ATCC 25923. As to the method: as §2
The next experiment has as its system S. aureus USA300. As to the method: as §2
Another experiment has as its system Y. enterocolitica. As to the method:
as §2

A further experiment relates to C. albicans 529L.

Entries after “also recorded” stand apart in the source; their conditions may differ. Read-outs that look alike come from different tables or passages of the source. Where a SMILES comes first, the peptide text is derived from it. Bridges are numbered along the chain shown (N, C = ends).

Usually MIC stands for the lowest concentration found to suppress growth. Read a high MIC as a need for much substance.

As for `CC[C@H](C)[C@H](NC(=O)[C@H](CCC(=O)O)NC(=O)[C@H](CS)NC(=O)[C@@H](NC(=O)CNC(=O)[C@H](CO)NC(=O)[C@H](CC(C)C)NC(=O)[C@H](CO)NC(=O)[C@@H](N)CCC(=O)O)C(C)C)C(=O)N[C@@H](CO)C(=O)NCC(=O)N[C@@H](CCCNC(=N)N)C(=O)N[C@@H](CC(C)C)C(=O)N[C@@H](Cc1ccc(O)cc1)C(=O)N[C@@H](CCCNC(=N)N)C(=O)N[C@@H](CC(C)C)C(=O)N[C@@H](CS)C(=O)N[C@@H](CS)C(=O)N[C@@H](CCCNC(=N)N)C(=O)O` [HD-514-32] (H-ESLSGVCEISGRLYRLCCR-OH; N-terminus and C-terminus assumed), in the experiment with pathogenic bacteria, the “antimicrobial activity in radial diffusion assay” value (from here on “antimicrobial activity”) is “inactive”.

Turning to “LYRLCCR (listed as Homo sapiens) [HD-526-32, HD-5 fragment 26-32]”, the “antimicrobial activity” value is reported as “exhibited antimicrobial properties, albeit to a lesser extent than HD-51-9” with commensal bacteria and “only minimally active or more selective in terms of different strains” in the experiment with pathogenic bacteria.

For “CATRESLSGVCEISGRLY (listed as Homo sapiens) [HD-510-27, HD-5 fragment 10-27]”, the “antimicrobial activity” value in the experiment with commensal bacteria is “did not exhibit measurable activity”; in the experiment on pathogenic bacteria, “inactive”.

As for `CC[C@H](C)[C@@H]1NC(=O)[C@H](CC(C)C)NC(=O)[C@@H]2CSSC[C@@H]3NC(=O)[C@H](CO)NC(=O)[C@@H](NC(=O)[C@@H](N)C(C)C)CSSC[C@@H](C(=O)N[C@H](C(=O)N[C@@H](CCCNC(=N)N)C(=O)N[C@H](C(=O)O)C(C)C)[C@@H](C)O)NC(=O)[C@H](CSSC[C@H](NC(=O)[C@H](Cc4ccccc4)NC(=O)[C@H](C(C)C)NC(=O)[C@H](CC(C)C)NC(=O)[C@H](CCCNC(=N)N)NC3=O)C(=O)N[C@@H](CCCNC(=N)N)C(=O)N[C@@H](CCCNC(=N)N)C(=O)N[C@@H]([C@@H](C)O)C(=O)N[C@@H](CCC(=O)O)C(=O)N[C@@H](CC(C)C)C(=O)N[C@@H](CCCNC(=N)N)C(=O)N[C@@H](C(C)C)C(=O)NCC(=O)N[C@@H](CC(N)=O)C(=O)N2)NC(=O)[C@H](Cc2ccc(O)cc2)NC(=O)[C@H]([C@@H](C)O)NC(=O)[C@H](Cc2ccccc2)NC(=O)[C@H](CO)NC(=O)[C@H](C(C)C)NC(=O)CNC(=O)CNC1=O` [HNP-4fl, reference compound] (H-VCSCRLVFCRRTELRVGNCLIGGVSFTYCCTRV-OH; disulfide 2-30, 4-19, 9-29 (inferred); N-terminus and C-terminus assumed), the MIC against A. baumannii 4-MRGN (4-MRGN, 12 h) is 12.5 µM; with A. baumannii 4-MRGN (A. baumannii 4-MRGN, after 12 hours), 46.4 µg/mL; with A. baumannii DSM 30007 (A. baumannii DSM30007, after 12 hours) it was 11.6 µg/mL; in the experiment with A. baumannii DSM 30007 (DSM 30007, 12 h), 3.125 µM; against E. coli JM83 (E. coli JM83, after 12 hours), 46.4 µg/mL; against E. coli JM83 (JM83, 12 h) it was 12.5 µM. Besides, the MIC is 3.125 µM in the experiment with E. faecium 475747 (475747, 12 h); 11.6 µg/mL with E. faecium 475747 (E. faecium 475747, after 12 hours); 6.25 µM against E. faecium DSM 20477 (DSM 20477, 12 h); 23.2 µg/mL against E. faecium DSM 20477 (E. faecium DSM20477, after 12 hours); “>>>” in the experiment on K. pneumoniae 3-MRGN; 100 µM with K. pneumoniae DSM 30104 (DSM 30104, 12 h). Also, the MIC in the experiment on K. pneumoniae DSM 30104 (K. pneumoniae DSM30104, after 12 hours) worked out at 371.5 µg/mL; in the experiment on P. aeruginosa 4-MRGN (4-MRGN, 12 h) it was 50 µM; in the experiment with P. aeruginosa 4-MRGN (P. aeruginosa 4-MRGN, after 12 hours), 185.8 µg/mL; against P. aeruginosa ATCC 27853 (ATCC 27853, 12 h) it was 6.25 µM; with P. aeruginosa ATCC 27853 (P. aeruginosa ATCC 27853, after 12 hours) it was 23.2 µg/mL; in the experiment on P. aeruginosa PAO1 (P. aeruginosa PAO1, after 12 hours) it was 46.4 µg/mL. Moreover, the MIC was 12.5 µM against P. aeruginosa PAO1 (PAO1, 12 h); 46.4 µg/mL against P. aeruginosa XPAT1 (P. aeruginosa XPAT1, after 12 hours); 12.5 µM in the experiment with P. aeruginosa XPAT1 (XPAT1, 12 h); 46.4 µg/mL with P. aeruginosa XPAT2 (P. aeruginosa XPAT2, after 12 hours); 12.5 µM against P. aeruginosa XPAT2 (XPAT2, 12 h); 6.25 µM with S. aureus ATCC 25923 (ATCC 25923, 12 h). The MIC against S. aureus ATCC 25923 (S. aureus ATCC25923, after 12 hours) was determined as 23.2 µg/mL; with S. aureus USA300 (S. aureus USA300, after 12 hours) it was 23.2 µg/mL; with S. aureus USA300 (USA300, 12 h) it was 6.25 µM; against Y. enterocolitica (12 h) it was 12.5 µM; in the experiment on Y. enterocolitica (Y. enterocolitica, after 12 hours), 46.4 µg/mL; in the experiment on C. albicans 529L (529L, 24 h), 50 µM. Moreover, the minimum inhibitory concentration (MIC) against C. albicans 529L (C. albicans 529L, after 24 hours (Table 5)) stood at 185.8 µg/mL.

On to `CC[C@H](C)[C@H](NC(=O)[C@H](CCC(=O)O)NC(=O)[C@H](CS)NC(=O)[C@@H](NC(=O)CNC(=O)[C@H](CO)NC(=O)[C@H](CC(C)C)NC(=O)[C@H](CO)NC(=O)[C@H](CCC(=O)O)NC(=O)[C@H](CCCNC(=N)N)NC(=O)[C@@H](NC(=O)[C@H](C)NC(=O)[C@@H](N)CS)[C@@H](C)O)C(C)C)C(=O)N[C@@H](CO)C(=O)NCC(=O)N[C@@H](CCCNC(=N)N)C(=O)N[C@@H](CC(C)C)C(=O)N[C@@H](Cc1ccc(O)cc1)C(=O)N[C@@H](CCCNC(=N)N)C(=O)N[C@@H](CC(C)C)C(=O)N[C@@H](CS)C(=O)N[C@@H](CS)C(=O)N[C@@H](CCCNC(=N)N)C(=O)O` [HD-510-32] (H-CATRESLSGVCEISGRLYRLCCR-OH; N-terminus and C-terminus assumed), for which, in the experiment with pathogenic bacteria, the “antimicrobial activity” value is “only minimally active or more selective in terms of different strains; also recorded: limited to the two Gram-positive bacteria”.

With `CC[C@H](C)[C@H](NC(=O)[C@H](CCC(=O)O)NC(=O)[C@H](CS)NC(=O)[C@@H](NC(=O)CNC(=O)[C@H](CO)NC(=O)[C@H](CC(C)C)NC(=O)[C@H](CO)NC(=O)[C@H](CCC(=O)O)NC(=O)[C@H](CCCNC(=N)N)NC(=O)[C@@H](NC(=O)[C@H](C)NC(=O)[C@H](CS)NC(=O)[C@H](CCCNC(=N)N)NC(=O)CNC(=O)[C@@H](N)[C@@H](C)O)[C@@H](C)O)C(C)C)C(=O)N[C@@H](CO)C(=O)NCC(=O)N[C@@H](CCCNC(=N)N)C(=O)N[C@@H](CC(C)C)C(=O)N[C@@H](Cc1ccc(O)cc1)C(=O)N[C@@H](CCCNC(=N)N)C(=O)N[C@@H](CC(C)C)C(=O)N[C@@H](CS)C(=O)N[C@@H](CS)C(=O)N[C@@H](CCCNC(=N)N)C(=O)O` [HD-57-32] (H-TGRCATRESLSGVCEISGRLYRLCCR-OH; N-terminus and C-terminus assumed), the MIC in the experiment on A. baumannii 4-MRGN (4-MRGN, 12 h) was 25 µM; in the experiment on A. baumannii 4-MRGN (A. baumannii 4-MRGN, after 12 hours, listed as 7-32) it was 72.25 µg/mL; in the experiment with E. faecium 475747 (475747, 12 h) it was 25 µM; against E. faecium 475747 (E. faecium 475747, after 12 hours, listed as 7-32) it was 72.2 µg/mL; in the experiment on P. aeruginosa ATCC 27853 (ATCC 27853, 12 h), 50 µM; in the experiment with P. aeruginosa ATCC 27853 (P. aeruginosa ATCC 27853, after 12 hours, listed as 7-32), 144.5 µg/mL. For the same compound, the “antimicrobial activity” value with commensal bacteria is “exhibited antimicrobial properties, albeit to a lesser extent than HD-51-9”; with pathogenic bacteria, “strong effect on the growth of every tested bacterium”.

For the origin of these results see patent US12358949B2, “Defensin fragments for use in therapy or prophylaxis” (priority 2019, dated 2025).
